{"source": "patent US12428406B2", "about": "(PMV Pharmaceuticals, Inc., priority 2019, dated 2025)"}
{"target": "T1, p53 Y220C (Homo sapiens, UniProt P04637, Y220C)", "T1 construct": "The recombinant protein was a truncation mutant containing only amino acids 94-312 of p53; made in house; host or cells: E. coli", "T1 sequence (P04637 94-312, change not shown)": "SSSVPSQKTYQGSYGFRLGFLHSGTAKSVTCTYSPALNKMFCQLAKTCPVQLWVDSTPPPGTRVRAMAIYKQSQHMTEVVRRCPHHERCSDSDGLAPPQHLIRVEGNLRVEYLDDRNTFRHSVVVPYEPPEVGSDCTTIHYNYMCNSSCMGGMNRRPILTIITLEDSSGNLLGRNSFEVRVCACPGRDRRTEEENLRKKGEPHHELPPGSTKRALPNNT", "experiment": "In vitro DNA binding activity assay (HTRF / TR-FRET): stabilization of p53 Y220C and increase of its DNA binding activity", "assay_type": "biochemical", "conditions": "recombinant His-tagged p53 Y220C DNA binding domain (aa 94-312), biotin-labeled consensus DNA, incubated at 27° C. or 29° C. for 60 min", "method_in_brief": "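Compounds from 4.5 mM DMSO stocks, 3-fold serial dilutions; room-temperature incubations of 15 and 20 min. SC150 = concentration raising DNA binding by 50% over no-compound control.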"}
{"smiles": "COc1cc(S(C)(=O)=O)ccc1NCC#Cc1cc2c(N[C@H]3CCOC[C@@H]3OC)cccc2n1CC(F)(F)F", "note": "[Compound 1023A, 2-(3-((2-methoxy-4-(methylsulfonyl)phenyl)amino)prop-1-yn-1-yl)-N-((3R,4S)-3-methoxytetrahydro-2H-pyran-4-yl)-1-(2,2,2-trifluoroethyl)-1H-indol-4-amine]", "SC150 (concentration of the compound required to increase the DNA binding activity by 50%)": "++ (++ = 0.05 μM ≤ SC150 < 0.1 μM)"}
{"smiles": "COc1cc(S(C)(=O)=O)ccc1NCC#Cc1cc2c(N[C@H]3CC[C@H](N4CC5(CCC5)C4)CC3)cccc2n1CC(F)(F)F", "note": "[Compound 194A, 2-{3-[(4-methane-sulfonyl-2-methoxy-phenyl)amino]prop-1-yn-1-yl}-N-[(1R,4R)-4-{2-azaspiro[3.3]heptan-2-yl}cyclohexyl]-1-(2,2,2-trifluoroethyl)-1H-indol-4-amine]", "SC150 (concentration of the compound required to increase the DNA binding activity by 50%)": "+ (+ = 0 μM ≤ SC150 < 0.05 μM)"}
{"smiles": "COc1cc(S(N)(=O)=O)ccc1NCC#Cc1cc2c(N[C@H]3CC[C@H](N4CCC(OC)C4)CC3)cccc2n1CC(F)(F)F", "note": "(stereo partly drawn) [Compound 427A, 3-methoxy-4-{[3-(4-{[(1R,4R)-4-(3-methoxypyrrolidin-1-yl)cyclohexyl]amino}-1-(2,2,2-trifluoroethyl)-1H-indol-2-yl)prop-2-yn-1-yl]amino}benzene-1-sulfonamide]", "SC150 (concentration of the compound required to increase the DNA binding activity by 50%)": "+ (+ = 0 μM ≤ SC150 < 0.05 μM)"}
{"smiles": "COc1cc(C(=O)NC[C@@H](C)O)ccc1NCC#Cc1cc2c(N[C@@H]3CCN(C)C[C@@H]3F)cccc2n1CC(F)(F)F", "note": "[Compound 957A, 4-((3-(4-(((3S,4R)-3-fluoro-1-methylpiperidin-4-yl)amino)-1-(2,2,2-trifluoroethyl)-1H-indol-2-yl)prop-2-yn-1-yl)amino)-N—((R)-2-hydroxypropyl)-3-methoxybenzamide]", "SC150 (concentration of the compound required to increase the DNA binding activity by 50%)": "+ (+ = 0 μM ≤ SC150 < 0.05 μM)"}
{"smiles": "CNC(=O)c1ccc(NCC#Cc2cc3c(N[C@H]4CC[C@@H](N5CC6(CCOCC6)C5)CC4)cccc3n2CC(F)(F)F)c(OC)c1", "note": "[Compound 296A, 3-methoxy-N-methyl-4-{[3-(4-{[(1S,4S)-4-{7-oxa-2-azaspiro[3.5]nonan-2-yl}cyclohexyl]amino}-1-(2,2,2-trifluoroethyl)-1H-indol-2-yl)prop-2-yn-1-yl]amino} benzamide]", "SC150 (concentration of the compound required to increase the DNA binding activity by 50%)": "+ (+ = 0 μM ≤ SC150 < 0.05 μM)"}
{"smiles": "COc1cc(C(C)(C)C#N)ncc1NCC#Cc1cc2c(NC3CCN(CC(O)CO)CC3)cccc2n1CC(F)(F)F", "note": "(stereo not shown) [Compound 554A, 2-(5-{[3-(4-{[1-(2,3-dihydroxypropyl)piperidin-4-yl]amino}-1-(2,2,2-trifluoroethyl)-1H-indol-2-yl)prop-2-yn-1-yl]amino}-4-methoxypyridin-2-yl)-2-methylpropanenitrile]", "SC150 (concentration of the compound required to increase the DNA binding activity by 50%)": "+ (+ = 0 μM ≤ SC150 < 0.05 μM)"}
{"smiles": "COc1cc(S(C)(=O)=O)ccc1NCC#Cc1cc2c(N[C@@H]3CCN(C)C[C@@H]3F)cccc2n1CC(F)(F)F", "note": "[Compound 772A, N-[(3S,4R)-3-fluoro-1-methylpiperidin-4-yl]-2-{3-[(4-methanesulfonyl-2-methoxyphenyl)amino]prop-1-yn-1-yl}-1-(2,2,2-trifluoroethyl)-1H-indol-4-amine]", "SC150 (concentration of the compound required to increase the DNA binding activity by 50%)": "+ (+ = 0 μM ≤ SC150 < 0.05 μM)"}
{"smiles": "COCC(CNC(=O)c1ccc(NCC#Cc2cc3c(N[C@@H]4CCN(C)C[C@@H]4F)cccc3n2CC(F)(F)F)c(OC)c1)OC(=O)C(C)C", "note": "(stereo partly drawn) [Compound 1055A, 1-[(4-{[3-(4-{[(3S,4R)-3-fluoro-1-methylpiperidin-4-yl]amino}-1-(2,2,2-trifluoroethyl)-1H-indol-2-yl)prop-2-yn-1-yl]amino}-3-methoxyphenyl)formamido]-3-methoxypropan-2-yl 2-methylpropanoate]", "SC150 (concentration of the compound required to increase the DNA binding activity by 50%)": "+ (+ = 0 μM ≤ SC150 < 0.05 μM)"}
{"smiles": "COc1cc(S(C)(=O)=O)ccc1NCC#Cc1cc2c(NC(=O)Nc3ccncc3)cccc2n1CC(F)(F)F", "note": "[Compound 11A, 1-(2-(3-((2-methoxy-4-(methylsulfonyl)phenyl)amino)prop-1-yn-1-yl)-1-(2,2,2-trifluoroethyl)-1H-indol-4-yl)-3-(pyridin-4-yl)urea]", "SC150 (concentration of the compound required to increase the DNA binding activity by 50%)": "++++ (++++ = 0.2 μM ≤ SC150 < 1 μM)"}
{"smiles": "CCOc1cc(S(C)(=O)=O)ccc1NCC#Cc1cc2c(N[C@H]3CCN(C)C[C@H]3F)cccc2n1CC(F)(F)F", "note": "[Compound 844A]", "SC150 (concentration of the compound required to increase the DNA binding activity by 50%)": "+ (+ = 0 μM ≤ SC150 < 0.05 μM)"}
{"smiles": "COCC(O)CN1CCC(Nc2cccc3c2cc(C#CCNc2ccc(S(C)(=O)=O)cc2OCCF)n3CC(F)(F)F)CC1", "note": "(stereo not shown) [Compound 625A, 1-(4-{[2-(3-{[2-(2-fluoroethoxy)-4-methanesulfonylphenyl]amino}prop-1-yn-1-yl)-1-(2,2,2-trifluoroethyl)-1H-indol-4-yl]amino}piperidin-1-yl)-3-methoxypropan-2-ol]", "SC150 (concentration of the compound required to increase the DNA binding activity by 50%)": "+ (+ = 0 μM ≤ SC150 < 0.05 μM)"}
{"smiles": "CNC(=O)c1ccc(NCC#Cc2cc3c(NC4CCS(=O)(=O)CC4)cccc3n2CC(F)(F)F)c(OC)c1", "note": "[Compound 1049A, 4-[(3-{4-[(1,1-dioxo-1λ^6-thian-4-yl)amino]-1-(2,2,2-trifluoroethyl)-1H-indol-2-yl}prop-2-yn-1-yl)amino]-3-methoxy-N-methylbenzamide]", "SC150 (concentration of the compound required to increase the DNA binding activity by 50%)": "+ (+ = 0 μM ≤ SC150 < 0.05 μM)"}
{"smiles": "CNS(=O)(=O)c1ccc(NCC#Cc2cc3c(NC4CCN(C)CC4)cccc3n2CC(F)(F)F)c(OC)c1", "note": "[Compound 484A, 3-methoxy-N-methyl-4-[(3-{4-[(1-methylpiperidin-4-yl)amino]-1-(2,2,2-trifluoroethyl)-1H-indol-2-yl}prop-2-yn-1-yl)amino]benzene-1-sulfonamide]", "SC150 (concentration of the compound required to increase the DNA binding activity by 50%)": "+ (+ = 0 μM ≤ SC150 < 0.05 μM)"}
{"smiles": "CNC(=O)c1ccc(NCC#Cc2cc3c(N[C@H]4CC[C@H](N5CC6(CCOCC6)C5)CC4)cccc3n2CC(F)(F)F)c(OC)c1", "note": "[Compound 295A, 3-methoxy-N-methyl-4-{[3-(4-{[(1R,4R)-4-{7-oxa-2-azaspiro[3.5]nonan-2-yl}cyclo-hexyl]amino}-1-(2,2,2-trifluoroethyl)-1H-indol-2-yl)prop-2-yn-1-yl]amino}benzamide]", "SC150 (concentration of the compound required to increase the DNA binding activity by 50%)": "+ (+ = 0 μM ≤ SC150 < 0.05 μM)"}
{"smiles": "COc1cc(S(N)(=O)=O)ccc1NCC#Cc1cc2c(NC3CCN(C[C@@H]4COC(=O)O4)CC3)cccc2n1CC(F)(F)F", "note": "[Compound 562A, 3-methoxy-4-[(3-{4-[(1-{[(4R)-2-oxo-1,3-dioxolan-4-yl]methyl}piperidin-4-yl)amino]-1-(2,2,2-trifluoroethyl)-1H-indol-2-yl}prop-2-yn-1-yl)amino]benzene-1-sulfonamide]", "SC150 (concentration of the compound required to increase the DNA binding activity by 50%)": "+ (+ = 0 μM ≤ SC150 < 0.05 μM)"}
{"smiles": "CN(C)c1cc(S(C)(=O)=O)ccc1OCC#Cc1cc2c(N[C@H]3CC[C@@H](N(C)C)CC3)cccc2n1CC(F)(F)F", "note": "[Compound 111A, (1S,4S)-N^4-(2-{3-[2-(dimethylamino)-4-methanesulfonyl-phenoxy]prop-1-yn-1-yl}-1-(2,2,2-trifluoroethyl)-1H-indol-4-yl)-N^1,N^1-dimethylcyclohexane-1,4-diamine]", "SC150 (concentration of the compound required to increase the DNA binding activity by 50%)": "++++ (++++ = 0.2 μM ≤ SC150 < 1 μM)"}
{"smiles": "COc1cc(C(=O)O)ccc1NCC#Cc1cc2c(N[C@@H]3CCN(CC(=O)O)C[C@@H]3F)cccc2n1CC(F)(F)F", "note": "[Compound 934A, 4-{[3-(4-{[(3S,4R)-1-(carboxymethyl)-3-fluoropiperidin-4-yl]amino}-1-(2,2,2-trifluoroethyl)-1H-indol-2-yl)prop-2-yn-1-yl]amino}-3-methoxybenzoic acid]", "SC150 (concentration of the compound required to increase the DNA binding activity by 50%)": "+ (+ = 0 μM ≤ SC150 < 0.05 μM)"}
{"smiles": "COc1cc(S(=O)(=O)N2CCN(C)CC2)ccc1NCC#Cc1cc2c(NC3CCS(=O)(=O)CC3)cccc2n1CC(F)(F)F", "note": "[Compound 1048A, 4-({2-[3-({2-methoxy-4-[(4-methylpiperazin-1-yl)sulfonyl]phenyl}amino)prop-1-yn-1-yl]-1-(2,2,2-trifluoroethyl)-1H-indol-4-yl}amino)-1λ^6-thiane-1,1-dione]", "SC150 (concentration of the compound required to increase the DNA binding activity by 50%)": "+ (+ = 0 μM ≤ SC150 < 0.05 μM)"}
{"smiles": "COc1cc(S(C)(=O)=O)ccc1NCC#Cc1cc2c(N[C@H]3CCCC[C@H]3N)cccc2n1CC(F)(F)F", "note": "(racemic) [Compound 29A, rac-(1R,2S)-N^1-(2-{3-[(4-methanesulfonyl-2-methoxyphenyl)amino]prop-1-yn-1-yl}-1-(2,2,2-trifluoroethyl)-1H-indol-4-yl)cyclo-hexane-1,2-diamine]", "SC150 (concentration of the compound required to increase the DNA binding activity by 50%)": "+ (+ = 0 μM ≤ SC150 < 0.05 μM)"}
{"smiles": "COc1cc(C(N)=O)c(F)cc1NCC#Cc1cc2c(N[C@H]3CC[C@H](N4CC5(COC5)C4)CC3)cccc2n1CC(F)(F)F", "note": "[Compound 273A, 2-fluoro-5-methoxy-4-{[3-(4-{[(1R,4R)-4-{2-oxa-6-azaspiro[3.3]heptan-6-yl}cyclohexyl]amino}-1-(2,2,2-trifluoroethyl)-1H-indol-2-yl)prop-2-yn-1-yl]amino}benzamide]", "SC150 (concentration of the compound required to increase the DNA binding activity by 50%)": "+ (+ = 0 μM ≤ SC150 < 0.05 μM)"}
{"smiles": "CCOc1cc(S(C)(=O)=O)ccc1NCC#Cc1cc2c(NC3CCN(CC(O)COC)CC3)cccc2n1CC(F)(F)F", "note": "(stereo not shown) [Compound 631A, 1-{4-[(2-{3-[(2-ethoxy-4-methanesulfonylphenyl)amino]prop-1-yn-1-yl}-1-(2,2,2-trifluoroethyl)-1H-indol-4-yl)amino]piperidin-1-yl}-3-methoxypropan-2-ol]", "SC150 (concentration of the compound required to increase the DNA binding activity by 50%)": "+ (+ = 0 μM ≤ SC150 < 0.05 μM)"}
{"smiles": "CNC(=O)c1ccc(NCC#Cc2cc3c(N[C@@H]4CCN(C)C[C@@H]4F)cccc3n2CC(F)(F)F)c(OC)c1", "note": "[Compound 804A, 4-{[3-(4-{[(3S,4R)-3-fluoro-1-methylpiperidin-4-yl]amino}-1-(2,2,2-trifluoroethyl)-1H-indol-2-yl)prop-2-yn-1-yl]amino}-3-methoxy-N-methylbenzamide]", "SC150 (concentration of the compound required to increase the DNA binding activity by 50%)": "+ (+ = 0 μM ≤ SC150 < 0.05 μM)"}
